Data as given in patent US20240018146A1, “COMPOSITIONS AND METHODS OF USING THE SAME FOR TREATMENT OF NEURODEGENERATIVE AND MITOCHONDRIAL DISEASE” (MITOKININ, INC., priority 2020, published 2024).
Read-outs that look alike come from different tables or passages of the source.

Legend:
HeLa MKYP cells [1] = experiment: Human mitophagy assay (HeLa mKeima assay, FACS); format: cell-based; details: read-out: Mitophagy induction EC50
Experimental: Briefly, HeLa MKYP cells were plated at 10,000 cells/well in 96 well plates along with compounds at various concentrations. Following 16 hrs of incubation, cells were treated with 1 uM FCCP/oligomycin for 6 hours, then analyzed via FACS for the presence of mitochondria in lysosomes (as determined by an emissions spectrum shift from the pH-sensitive mtKeima tag).
Briefly, HeLa cells expressing a mitophagy indicator (mtKeima) protein were treated with […] of FCCP and Oligomycin followed by the specified dose of compound, then analyzed by FACS to quantify the percentage of cells undergoing mitophagy.

HeLa MKYP cells [2] = experiment: Cell death measured by DAPI staining, with 1 μM FCCP/oligomycin or no toxin (no FO); format: cell-based
Experimental: EP-0035985, EP-0037821, EP-0038098, and EP-0038099 in the presence of 1 μM FCCP/oligomycin or with no toxin (no FO) for 6 hrs. H2O2 treatment was performed as a control for cell death as measured by DAPI staining.
EP-0035985, EP-0038461, EP-0038463, and EP-0038503 in the presence of 1 μM FCCP/oligomycin or with no toxin (no FO) for 6.5 hrs. H2O2 treatment was performed as a control for cell death as measured by DAPI staining.
EP-0035985, EP-0038504, EP-0038508, and EP-0038521 in the presence of 1 μM FCCP/oligomycin or with no toxin (no FO) for 6.5 hrs. H2O2 treatment was performed as a control for cell death as measured by DAPI staining.
EP-0035985, EP-0038461, EP-0038463, EP-0038503, EP-0038504, EP-0038508, and EP-0038521 in the presence of 1 μM FCCP/oligomycin or with no toxin (no FO) for 6.5 hrs. H2O2 treatment was performed as a control for cell death as measured by DAPI staining.

SMILES	EC50 (HeLa MKYP cells [1])	Highest safe dose (cytotoxicity; no FO; safe means DAPI+ <20%) (HeLa MKYP cells [2])	Max % death with 1 μM FO (HeLa MKYP cells [2])	EC50 (HeLa MKYP cells [1]; Homo sapiens, HeLa)
c1ccc2c(c1)OCC(N1CC3CCOC3C1)C2Nc1ncnc2[nH]c(C3CC3)cc12 (single isomer, unassigned) [EP-0041669]	> 25 µM	25.0 µM	2.5%	
OC[C@@H]1CCCN1[C@H]1CCc2ccccc2[C@@H]1Nc1ncnc2[nH]c(C3CC3)cc12 [EP-0040085]		8.3 µM	38.1%	> 25 µM
FC(F)(F)c1cc2c(N[C@@H]3c4ccccc4CC[C@H]3C3CCOCC3)ncnc2[nH]1 (single isomer, unassigned) [EP-0040581]		25.0 µM	8.1%	2.69 µM
COC1CN([C@H]2COc3cc(F)ccc3[C@@H]2Nc2ncnc3[nH]c(C(F)(F)F)cc23)C1 (single isomer, unassigned) [EP-0041089]		25.0 µM	10.2%	1.97 µM
FC1(F)CN(C2COc3ccccc3C2Nc2ncnc3[nH]c(C4CC4)cc23)C1 (racemic) [EP-0041566]		25.0 µM	30.0%	1 µM
OC(C1CCOCC1)C1COc2ccccc2C1Nc1ncnc2[nH]c(C(F)(F)F)cc12 (single isomer, unassigned) [EP-0041270]	0.86 µM	25.0 µM	11.6%	
c1ccc2c(c1)OCC(N1CC3CCOC3C1)C2Nc1ncnc2[nH]c(C3CC3)cc12 (single isomer, unassigned) [EP-0041667]	> 25 µM	25.0 µM	3.1%	
OC(C1CCOCC1)[C@H]1COc2ccccc2[C@@H]1Nc1ncnc2[nH]c(C(F)(F)F)cc12 (stereo partly drawn) [EP-0041135]		25.0 µM	15.7%	1.53 µM
COCC1CC([C@H]2COc3ccccc3[C@@H]2Nc2ncnc3[nH]c(C(F)(F)F)cc23)C1 (stereo partly drawn) [EP-0041260]		25.0 µM	10.2%	0.85 µM
C[C@H]1CN([C@@H]2CCc3ccccc3[C@H]2Nc2ncnc3[nH]c(C4CC4)cc23)CCO1 (single isomer, unassigned) [EP-0040512]		25.0 µM	26.7%	12.1 µM
FC(F)(F)c1cc2c(N[C@H]3c4ccccc4OC[C@H]3C3CCOCC3)ncnc2[nH]1 [EP-0040586]		8.3 µM	16.9%	> 25 µM
COC(C)(C)C1CN([C@H]2COc3ccccc3[C@@H]2Nc2ncnc3[nH]c(C(F)(F)F)cc23)C1 [EP-0041480]		25.0 µM	4.6%	2.69 µM
OC[C@@H]1CN([C@H]2COc3ccccc3[C@@H]2Nc2ncnc3[nH]c(C(F)(F)F)cc23)CCO1 (single isomer, unassigned) [EP-0041585]		25.0 µM	6.6%	16.1 µM
COC[C@H]1CCCN1[C@H]1COc2ccccc2[C@@H]1Nc1ncnc2[nH]c(C(F)(F)F)cc12 [EP-0041553]		25.0 µM	5.7%	15.2 µM
OC1CC2(C1)CN([C@H]1COc3ccccc3[C@@H]1Nc1ncnc3[nH]c(C(F)(F)F)cc13)C2 (single isomer, unassigned) [EP-0040725]		25.0 µM	3.4%	> 25 µM
CO[C@H]1CCN([C@@H]2COc3ccccc3[C@H]2Nc2ncnc3[nH]c(C(F)(F)F)cc23)C1 [EP-0041173]		25.0 µM	6.1%	4.09 µM
COC1CN([C@@H]2CCc3ccccc3[C@H]2Nc2ncnc3[nH]c(C(F)(F)F)cc23)C1 [EP-0040858]		25.0 µM	6.6%	≥ 28.8 µM
